# Like-named read-outs stand apart in the source and are kept apart here.
# Experiments:
# [1] = hypothermic effect, rectal temperature; format: in vivo; conditions: mice; words
# Method: Rectal temperatures were recorded periodically in mice following administration of 740-222 by oral route.
# [2] = tested on: pinna reflex, corneal reflex; assay: pinna / corneal reflex test (Witkin et al.), tranquilizer activity; format: in vivo, mouse
# Source text: A tranquil sedation has been observed in mice, rats, cats and monkeys following administration of these compounds in doses exceeding those that are required for analgesia. In addition further indirect evidence for tranquilizer activity has been obtained by application of a method described by Witkin et al., J. Pharmacol, and Exp. Ther. 126:330 (1959)
# This test is based upon observations that the pinna reflex of the mouse is blocked at relatively low doses of major tranquilizer drugs whereas very high doses are needed to block the corneal reflex. A ratio of ED50 corneal/ED50 pinna exceeding unity is taken as evidence of tranquilizer type action. […].
# intestinal motility = assay: gastrointestinal motility suppression (Brittain & Collier, modified), charcoal; format: in vivo; conditions: mice; words
# NARCOTIC ANTAGONISM = assay: narcotic antagonism (Table IV); format: in vivo; conditions: I.P.
# Method: (§1) The compounds of this invention were tested for their ability to antagonize narcotic analgesics by two different tests. […] Another test used for narcotic antagonist activity was published by Harris & Pearson. This test is modification of the D'Amour & Smith method.
# (§2) In the original method the time required for rats to flick their tails following application of a heat stimulus is taken as a measure of analgesic potency.
# [3] = tested on: isolated guinea pig ileum (Histamine); assay: isolated guinea pig ileum screen, block of histamine (antihistaminic)
# Source text: Contractions were elicited by histamine phosphate. The concentration of compound required to block these contractions when added to the tissue bath prior to introduction of histamine is taken as evidence of antihistaminic action.
# [4] = tested on: isolated guinea pig ileum (Acetylcholine); assay: isolated guinea pig ileum screen, block of acetylcholine
# [5] = tested on: metrazol induced convulsions; assay: anticonvulsant activity, pentylenetetrazol (Metrazol) convulsions; format: in vivo; conditions: mice, subcutaneous; words
# heat stimulus [6] = assay: mouse hot plate test (Eddy and Leimbach, modified); conditions: Mus musculus, read-out: Hot Plate ED50
# [7] = mouse hot plate test (Eddy and Leimbach, modified); conditions: mouse, in vivo, LD50 /ED50 H.P.
# in vivo [8] = conditions: ip
# in vivo [9] = conditions: mouse
# heat stimulus [10] = assay: D'Amour Smith Rat Tail Flick; format: in vivo; conditions: Rattus norvegicus, sc; Sub. cut.; read-out: Rat Tail Flick ED50
# Source text: as §2
# morphine analgesia = assay: antagonism of morphine analgesia (Harris & Pearson, modified D'Amour & Smith); format: in vivo; conditions: rats; words
# Method: as §1, §2
# [11] = tested on: phenylbenzoquinone writhing; assay: phenylbenzoquinone writhing test, mouse; format: in vivo
# Method: (§4) In addition to the hot plate method, the writhing test described by Sigmund et al., Soc. Exp. Biol. and Med. 95:729 (1957) has been applied in both rats and mice as further indication of analgesics. […] The stimulus of intraperitoneal injection of phenylbenzoquinone results in a writhing syndrome characterized by periodic twisting and stretching of the body with extension of the hind legs. […] The dose of compound protecting 50% of the animals is determined and expressed as the ED50. Ten animals are used at each dose level.
# [12] = phenylbenzoquinone writhing test, mouse; format: in vivo; conditions: mouse, in vivo
# Method: as §4
# [13] = analgesic activity and general pharmacology, conventional testing methods; format: in vivo; conditions: words
# Source text: Ten animals are used for each dose level.
# Ten animals are used at each dose level.
# [14] = tested on: phenylbenzoquinone writhing; assay: phenylbenzoquinone writhing test, rat; format: in vivo; conditions: sc; Rat Sub. cut; read-out: Writhing ED50
# Source text: (§3) […]. […] Ten animals are used at each dose level.
# [15] = phenylbenzoquinone writhing test, rat; format: in vivo; conditions: rat, in vivo
# Source text: as §3
# [16] = tested on: oxymorphone induced mydriasis; assay: antagonism of oxymorphone induced mydriasis; format: in vivo, mice; conditions: words
# Method: as §1
# in vivo [17] = conditions: mouse; remark: listed apart in the source
smiles,measurement,setting,value
"NC(=O)c1ccccc1NCCN1CCN(c2ccccc2)CC1 [Example I, 2-[2-(4-[1-Phenyl]piperazinyl)ethylamino]-benzamide]",hypothermic effect,[1],also effective in this respect
same,ratio of ED50 corneal/ED50 pinna,"[2]; mouse, exceeding unity = tranquilizer type action",approximately 0.5
same,tranquilizer classification from corneal/pinna ratio,[2]; words,within the range of ratios expected with sedatives (0.3 to 0.7)
same,suppression of intestinal motility,intestinal motility,less important
same,NARCOTIC ANTAGONISM,NARCOTIC ANTAGONISM,Positive
same,Amount to produce a 50% block of Histamine,"[3]; isolated guinea pig ileum, 37° C.",0.8 micrograms
same,antihistaminic activity compared with diphenhydramine,[3]; words,about half as active as the standard
same,Amount to produce a 50% block of Acetylcholine,[4],126 micrograms
same,antagonism of metrazol induced convulsions,[5],not effective by the subcutaneous route
same,ED50,heat stimulus [6]; ip,1.5 mg/kg
same,ED50,heat stimulus [6]; po,3 mg/kg
same,ED50,heat stimulus [6]; sc,4.1 mg/kg
same,selectivity ratio,"[7]; ip, Mouse i.p.",670
same,selectivity ratio,"[7]; po, Mouse p.o.",> 330
same,selectivity ratio,"[7]; sc, Mouse s.c.",> 240
same,LD50,in vivo [8],800 mg/kg
same,NOAEL,in vivo [8],2 mg/kg
same,selectivity ratio,in vivo [9]; ip,1.2
same,selectivity ratio,in vivo [9]; po,1.9
same,selectivity ratio,in vivo [9]; sc,2.4
same,ED50,heat stimulus [10],> 18 mg/kg
same,antagonism of morphine analgesia,morphine analgesia,at lower dose levels antagonism of morphine analgesia was observed in rats
same,ED50,"[11]; po, Mouse p.o.",2.9 mg/kg
same,ED50,"[11]; sc, Mouse s.c.",1.6 mg/kg
same,selectivity ratio,[12]; po,1.9
same,selectivity ratio,"[12]; po, Mouse p.o., read-out: LD50 /ED50 Writhing",> 340
same,selectivity ratio,[12]; sc,6.3
same,selectivity ratio,"[12]; sc, Mouse s.c., read-out: LD50 /ED50 Writhing",> 620
same,"analgesic activity compared with morphine, hot plate and writhing tests",[13],approximately equivalent to or slightly more active than morphine
same,oral versus parenteral analgesic activity,[13],more active by the parenteral routes than by the oral route
same,ED50,[14],2.5 mg/kg
same,selectivity ratio,[15],2
same,selectivity ratio,"[15]; Rat Sub. cut, read-out: LD50 /ED50 Writhing",400
same,antagonism of oxymorphone induced mydriasis,[16],effective in antagonizing oxymorphone induced mydriasis
same,selectivity ratio,in vivo [17],> 300
same,LD50,in vivo [17]; read-out: acute toxicity (LD50),800 to 1000 mg/kg

# From patent US4060526A, “1-Heterocyclic alkyl-1,2,3,4-tetrahydroquinazolinones and analgesic intermediates thereof” (priority 1976, dated 1977)
